Assay results reported in ChEMBL document CHEMBL1201862, “PubChem BioAssay data set” (2004).
The source made the active and inactive calls.

Assays:
[1] = biological target: T1, Delta-type opioid receptor (Homo sapiens, UniProt P41143); experiment: HTS Image-Based Screen for Agonists of the DOR Receptor. [Related pubchem assays (depositor defined):AID1777, AID1786, AID2133]; format: functional
[2] = inhibitors of intracellular T. cruzi replication, confirmation, NIH3T3 host cells, beta-gal luminescence (AID 2044); format: functional, cell-based;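 further: intracellular parasites grown in NIH/3T3 mouse fibroblasts as host cells; luminescent beta-galactosidase reporter signal from transgenic T. cruzi replicating inside host cells; inhibitors lower the luminescence signal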
[3] = cytotoxicity toward NIH3T3 fibroblasts, dose response, counter-screen, cell-based, ATP luminescence, mouse fibroblasts (AID 2010); format: functional;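 further: cells exposed to compound for about 90 hours before reading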
Beta-galactosidase [4] = biological target: T2, Beta-galactosidase (Escherichia coli, UniProt Q8VNN2); format: functional
T2 sequence (Q8VNN2 whole entry): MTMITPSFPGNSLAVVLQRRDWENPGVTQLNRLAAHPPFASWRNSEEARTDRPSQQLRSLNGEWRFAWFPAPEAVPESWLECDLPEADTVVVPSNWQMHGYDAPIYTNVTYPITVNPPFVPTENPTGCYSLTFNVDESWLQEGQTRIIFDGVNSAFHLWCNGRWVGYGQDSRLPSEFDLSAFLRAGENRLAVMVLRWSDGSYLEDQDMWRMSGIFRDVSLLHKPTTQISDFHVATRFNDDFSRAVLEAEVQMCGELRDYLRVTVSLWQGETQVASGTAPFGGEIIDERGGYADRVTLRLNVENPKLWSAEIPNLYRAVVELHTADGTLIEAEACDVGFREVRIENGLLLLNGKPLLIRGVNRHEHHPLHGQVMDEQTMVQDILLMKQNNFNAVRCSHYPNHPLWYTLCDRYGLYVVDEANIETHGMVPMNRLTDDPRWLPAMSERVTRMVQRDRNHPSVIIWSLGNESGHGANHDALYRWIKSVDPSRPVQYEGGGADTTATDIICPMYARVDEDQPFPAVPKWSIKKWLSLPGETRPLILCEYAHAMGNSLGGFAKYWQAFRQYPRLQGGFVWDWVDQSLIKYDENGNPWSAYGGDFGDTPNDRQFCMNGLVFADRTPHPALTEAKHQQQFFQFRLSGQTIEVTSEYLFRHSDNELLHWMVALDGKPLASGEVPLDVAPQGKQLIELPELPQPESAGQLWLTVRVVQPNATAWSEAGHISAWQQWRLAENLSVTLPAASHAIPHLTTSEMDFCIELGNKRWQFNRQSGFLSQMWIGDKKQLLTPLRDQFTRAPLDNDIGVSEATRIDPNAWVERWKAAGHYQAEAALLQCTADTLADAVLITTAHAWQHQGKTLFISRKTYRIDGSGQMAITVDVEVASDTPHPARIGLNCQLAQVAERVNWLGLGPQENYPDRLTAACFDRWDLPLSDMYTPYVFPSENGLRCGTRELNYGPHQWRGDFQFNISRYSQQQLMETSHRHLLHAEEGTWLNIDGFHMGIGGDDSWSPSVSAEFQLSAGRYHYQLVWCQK

Beta-galactosidase [5] = biological target: T2, Beta-galactosidase; experiment: beta-galactosidase enzyme inhibitors and activators, dose response, artefact control for CCR6 antagonist project, biochemical, E. coli enzyme, set 3 (AID 504712); format: functional
[6] = biological target: T3, Kappa-type opioid receptor (Homo sapiens, UniProt P41145); format: functional
T3 sequence (P41145 whole entry): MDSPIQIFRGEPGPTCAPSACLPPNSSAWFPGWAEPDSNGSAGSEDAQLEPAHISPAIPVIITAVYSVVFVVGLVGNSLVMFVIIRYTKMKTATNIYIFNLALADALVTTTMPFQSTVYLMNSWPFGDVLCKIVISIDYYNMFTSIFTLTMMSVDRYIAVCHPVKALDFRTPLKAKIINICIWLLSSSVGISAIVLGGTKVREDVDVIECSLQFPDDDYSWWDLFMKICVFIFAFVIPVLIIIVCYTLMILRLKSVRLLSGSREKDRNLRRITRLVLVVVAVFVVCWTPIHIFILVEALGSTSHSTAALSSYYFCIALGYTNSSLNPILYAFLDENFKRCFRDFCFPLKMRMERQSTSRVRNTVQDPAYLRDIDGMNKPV

Mu-type opioid receptor = Mu-type opioid receptor (Homo sapiens, UniProt P35372); experiment: HTS Image-Based Screen for Agonists of the MOR Receptor. [Related pubchem assays (depositor defined):AID1777, AID1785, AID1786, AID2133]; format: functional;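 further: imaging of beta-arrestin GFP recruitment into spots after receptor activation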
Chain of Mu-type opioid receptor (P35372 whole entry): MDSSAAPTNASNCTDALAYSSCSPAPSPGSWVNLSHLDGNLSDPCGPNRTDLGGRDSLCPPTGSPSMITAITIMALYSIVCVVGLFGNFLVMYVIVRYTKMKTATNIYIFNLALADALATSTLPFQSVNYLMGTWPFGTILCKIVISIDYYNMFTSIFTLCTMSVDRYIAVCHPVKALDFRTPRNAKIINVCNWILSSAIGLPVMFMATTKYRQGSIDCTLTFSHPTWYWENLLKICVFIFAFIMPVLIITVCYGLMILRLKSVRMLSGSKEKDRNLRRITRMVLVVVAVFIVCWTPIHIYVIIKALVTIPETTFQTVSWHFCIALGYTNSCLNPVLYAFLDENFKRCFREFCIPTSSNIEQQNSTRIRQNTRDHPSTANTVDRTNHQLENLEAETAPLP

Cytochrome P450 2C19 = Cytochrome P450 2C19 (Homo sapiens, UniProt P33261); experiment: Cytochrome panel assay with activity outcomes. Panel member name: p450-cyp2c19 Compounds with AC50 equal or less than 10 uM are considered active; format: functional; details: read-out: AC50
Chain of Cytochrome P450 2C19 (P33261 whole entry): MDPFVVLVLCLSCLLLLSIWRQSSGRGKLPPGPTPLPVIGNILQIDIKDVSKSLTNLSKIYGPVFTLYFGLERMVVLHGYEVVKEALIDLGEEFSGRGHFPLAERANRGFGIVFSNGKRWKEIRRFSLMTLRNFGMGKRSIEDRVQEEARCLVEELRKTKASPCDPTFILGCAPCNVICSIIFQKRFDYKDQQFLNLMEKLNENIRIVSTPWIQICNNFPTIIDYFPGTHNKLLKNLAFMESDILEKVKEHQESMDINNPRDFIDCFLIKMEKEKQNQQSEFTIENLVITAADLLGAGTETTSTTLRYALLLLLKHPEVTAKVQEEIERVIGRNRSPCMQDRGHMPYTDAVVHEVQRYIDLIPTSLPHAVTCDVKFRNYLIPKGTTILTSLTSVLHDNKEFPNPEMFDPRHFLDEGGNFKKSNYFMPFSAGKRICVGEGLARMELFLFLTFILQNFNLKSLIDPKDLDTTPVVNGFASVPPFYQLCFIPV

Cytochrome P450 2C9 = Cytochrome P450 2C9 (Homo sapiens, UniProt P11712)
Chain of Cytochrome P450 2C9 (P11712 whole entry): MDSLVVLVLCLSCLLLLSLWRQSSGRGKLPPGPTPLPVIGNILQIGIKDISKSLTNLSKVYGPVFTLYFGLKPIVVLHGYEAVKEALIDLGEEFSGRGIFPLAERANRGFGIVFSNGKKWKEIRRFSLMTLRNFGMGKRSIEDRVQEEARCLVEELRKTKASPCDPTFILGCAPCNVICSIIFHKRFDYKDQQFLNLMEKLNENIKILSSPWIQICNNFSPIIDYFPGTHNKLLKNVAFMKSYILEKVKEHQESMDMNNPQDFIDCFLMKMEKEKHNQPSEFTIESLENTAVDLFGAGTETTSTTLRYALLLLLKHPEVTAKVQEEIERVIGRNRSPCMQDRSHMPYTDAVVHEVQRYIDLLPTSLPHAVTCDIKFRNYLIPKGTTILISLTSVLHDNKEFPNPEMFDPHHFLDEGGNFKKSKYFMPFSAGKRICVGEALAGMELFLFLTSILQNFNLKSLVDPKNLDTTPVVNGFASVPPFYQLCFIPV

[7] = biological target: T1, Delta-type opioid receptor; experiment: HTS Image-Based Screen for Antagonists of the DOR Receptor. [Related pubchem assays (depositor defined):AID1777, AID1785, AID1786, AID2133]; format: functional
[8] = biological target: T3, Kappa-type opioid receptor; format: functional; remark: listed apart in the source
[9] = biological target: T4, C-C chemokine receptor type 6 (Homo sapiens, UniProt P51684); experiment: CCR6 receptor antagonists, dose response, cell-based, luminescent beta-arrestin readout (AID 504728); format: functional
T4 sequence (P51684 whole entry): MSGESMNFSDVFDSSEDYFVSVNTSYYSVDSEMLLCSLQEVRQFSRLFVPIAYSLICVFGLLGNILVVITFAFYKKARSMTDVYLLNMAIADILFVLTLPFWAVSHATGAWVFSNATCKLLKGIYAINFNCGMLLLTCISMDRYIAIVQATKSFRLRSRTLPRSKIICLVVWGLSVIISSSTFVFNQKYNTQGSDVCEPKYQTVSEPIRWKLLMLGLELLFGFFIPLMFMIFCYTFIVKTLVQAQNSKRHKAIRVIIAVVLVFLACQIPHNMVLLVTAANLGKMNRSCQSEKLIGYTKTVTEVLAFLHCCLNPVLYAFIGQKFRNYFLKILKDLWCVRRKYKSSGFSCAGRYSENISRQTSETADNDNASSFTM

[10] = biological target: T5, Ubiquitin-conjugating enzyme E2 N (Homo sapiens, UniProt P61088); format: functional
T5 sequence (P61088 whole entry): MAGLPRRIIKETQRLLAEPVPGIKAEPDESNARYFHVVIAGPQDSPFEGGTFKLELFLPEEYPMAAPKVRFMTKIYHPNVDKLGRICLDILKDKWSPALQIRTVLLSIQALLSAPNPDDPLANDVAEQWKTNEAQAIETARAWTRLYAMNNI

[11] = biological target: Neurotensin receptor type 1 (Homo sapiens, UniProt P30989); format: functional;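 further: Image-based confirmatory dose-response assay measuring agonist activity at NTR1; NTR1-expressing U2OS osteosarcoma cells imaged for beta-arrestin GFP spot formation; agonist potency where compounds increase beta-arrestin recruitment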
Chain of Neurotensin receptor type 1 (P30989 whole entry): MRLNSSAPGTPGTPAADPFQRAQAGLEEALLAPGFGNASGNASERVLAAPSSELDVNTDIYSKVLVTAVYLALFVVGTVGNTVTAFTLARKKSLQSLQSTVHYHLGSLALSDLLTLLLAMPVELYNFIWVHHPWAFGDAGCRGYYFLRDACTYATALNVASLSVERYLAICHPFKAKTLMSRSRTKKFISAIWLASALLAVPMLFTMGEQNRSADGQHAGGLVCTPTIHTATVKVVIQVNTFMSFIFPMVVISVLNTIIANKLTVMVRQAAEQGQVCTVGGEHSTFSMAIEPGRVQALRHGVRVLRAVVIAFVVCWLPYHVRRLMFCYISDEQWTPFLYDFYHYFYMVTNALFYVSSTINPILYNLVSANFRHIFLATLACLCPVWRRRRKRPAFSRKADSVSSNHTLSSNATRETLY

Bcl-2-related protein A1 = biological target: T6, Bcl-2-related protein A1 (Mus musculus, UniProt Q07440); format: functional;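 further: confirmatory dose–response counterscreen on Bfl-1, used to check hits from a UBC13 polyubiquitin inhibitor campaign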
T6 sequence (Q07440 whole entry): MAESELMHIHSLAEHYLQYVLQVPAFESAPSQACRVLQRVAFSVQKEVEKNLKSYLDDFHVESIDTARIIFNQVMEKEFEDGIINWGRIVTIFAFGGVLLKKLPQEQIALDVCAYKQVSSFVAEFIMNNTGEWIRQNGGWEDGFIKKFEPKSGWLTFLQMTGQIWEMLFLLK

Streptokinase A = biological target: T7, Streptokinase A (Streptococcus pyogenes serotype M1, UniProt P10520); experiment: S. pyogenes streptokinase expression inhibitors, potency, dose response, plasminogen activation absorbance, OD405 (AID 1914); format: functional, Streptococcus pyogenes M1 GAS;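 further: secreted streptokinase activity via plasminogen activation per viability signal from cell pellet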
T7 sequence (P10520 whole entry): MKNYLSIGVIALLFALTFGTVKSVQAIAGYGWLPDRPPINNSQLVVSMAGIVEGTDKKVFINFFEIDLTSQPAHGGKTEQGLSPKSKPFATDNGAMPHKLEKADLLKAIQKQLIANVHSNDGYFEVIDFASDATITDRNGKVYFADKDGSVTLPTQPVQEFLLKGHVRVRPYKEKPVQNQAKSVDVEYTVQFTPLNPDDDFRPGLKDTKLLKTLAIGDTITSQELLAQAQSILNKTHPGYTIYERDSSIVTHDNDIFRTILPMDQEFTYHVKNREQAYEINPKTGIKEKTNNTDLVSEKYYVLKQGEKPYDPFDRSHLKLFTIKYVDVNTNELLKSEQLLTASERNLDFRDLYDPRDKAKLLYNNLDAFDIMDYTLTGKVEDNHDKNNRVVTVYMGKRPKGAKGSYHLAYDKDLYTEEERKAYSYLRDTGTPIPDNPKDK

Melanocortin receptor 4 = Melanocortin receptor 4 (Homo sapiens, UniProt P32245); format: functional, cell-based;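 further: Cell-based assay with luminescence read-out, confirmatory dose-response testing for agonist activity of biased ligands at MC4R; human U2OS cells with tagged receptor and beta-arrestin; potency of agonists that increase receptor coupling to beta-arrestin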
Chain of Melanocortin receptor 4 (P32245 whole entry): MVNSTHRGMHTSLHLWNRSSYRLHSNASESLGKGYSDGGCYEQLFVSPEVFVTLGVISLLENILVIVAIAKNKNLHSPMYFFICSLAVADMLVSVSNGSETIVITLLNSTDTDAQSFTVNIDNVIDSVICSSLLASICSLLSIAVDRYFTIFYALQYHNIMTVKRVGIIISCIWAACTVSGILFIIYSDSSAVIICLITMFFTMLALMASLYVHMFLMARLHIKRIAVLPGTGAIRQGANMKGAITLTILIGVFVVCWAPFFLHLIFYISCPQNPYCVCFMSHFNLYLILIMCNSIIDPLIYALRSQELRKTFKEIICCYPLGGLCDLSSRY

[12] = biological target: T5, Ubiquitin-conjugating enzyme E2 N; format: functional; remark: listed apart in the source
Streptococcus = experiment: Group A Streptococcus viability loss, dose response, counter-screen for streptokinase expression inhibitor project, luminescence, BacTiterGlo (AID 1915); format: functional, organism-based;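 further: potency for reduction of bacterial viability or growth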
[13] = tested on: Streptococcus sp. 'group A'; experiment: growth inhibition of control SK(-) GAS strain, dose response, counter-screen for streptokinase expression inhibitor project, luminescence, kanamycin, BacTiterGlo, confirmation (AID 1900); format: functional, organism-based
Cytochrome P450 2D6 = Cytochrome P450 2D6 (Homo sapiens, UniProt P10635);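 further: CYP2D6 member of a cytochrome P450 panel assay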
Chain of Cytochrome P450 2D6 (P10635 whole entry): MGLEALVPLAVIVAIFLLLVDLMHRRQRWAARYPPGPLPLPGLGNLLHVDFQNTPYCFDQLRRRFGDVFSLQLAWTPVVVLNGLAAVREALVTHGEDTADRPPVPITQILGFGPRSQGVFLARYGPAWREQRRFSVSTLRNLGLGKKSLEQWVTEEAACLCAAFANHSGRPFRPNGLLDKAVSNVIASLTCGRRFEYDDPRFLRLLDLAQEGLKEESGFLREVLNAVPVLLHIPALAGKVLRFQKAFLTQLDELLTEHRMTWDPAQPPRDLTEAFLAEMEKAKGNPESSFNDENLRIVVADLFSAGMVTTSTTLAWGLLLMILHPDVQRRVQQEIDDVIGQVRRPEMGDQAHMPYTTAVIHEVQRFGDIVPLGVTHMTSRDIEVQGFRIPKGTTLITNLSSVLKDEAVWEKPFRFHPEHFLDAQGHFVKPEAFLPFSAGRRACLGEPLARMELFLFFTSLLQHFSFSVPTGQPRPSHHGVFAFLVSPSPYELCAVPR

[14] = biological target: T8, Short transient receptor potential channel 4 (Mus musculus, UniProt Q9QUQ5); experiment: mouse TRPC4 channel activators, dose response, cell-based, HEK293 TRPC4/mu-opioid, Fluo-4 calcium (AID 434937); format: functional
T8 sequence (Q9QUQ5 whole entry): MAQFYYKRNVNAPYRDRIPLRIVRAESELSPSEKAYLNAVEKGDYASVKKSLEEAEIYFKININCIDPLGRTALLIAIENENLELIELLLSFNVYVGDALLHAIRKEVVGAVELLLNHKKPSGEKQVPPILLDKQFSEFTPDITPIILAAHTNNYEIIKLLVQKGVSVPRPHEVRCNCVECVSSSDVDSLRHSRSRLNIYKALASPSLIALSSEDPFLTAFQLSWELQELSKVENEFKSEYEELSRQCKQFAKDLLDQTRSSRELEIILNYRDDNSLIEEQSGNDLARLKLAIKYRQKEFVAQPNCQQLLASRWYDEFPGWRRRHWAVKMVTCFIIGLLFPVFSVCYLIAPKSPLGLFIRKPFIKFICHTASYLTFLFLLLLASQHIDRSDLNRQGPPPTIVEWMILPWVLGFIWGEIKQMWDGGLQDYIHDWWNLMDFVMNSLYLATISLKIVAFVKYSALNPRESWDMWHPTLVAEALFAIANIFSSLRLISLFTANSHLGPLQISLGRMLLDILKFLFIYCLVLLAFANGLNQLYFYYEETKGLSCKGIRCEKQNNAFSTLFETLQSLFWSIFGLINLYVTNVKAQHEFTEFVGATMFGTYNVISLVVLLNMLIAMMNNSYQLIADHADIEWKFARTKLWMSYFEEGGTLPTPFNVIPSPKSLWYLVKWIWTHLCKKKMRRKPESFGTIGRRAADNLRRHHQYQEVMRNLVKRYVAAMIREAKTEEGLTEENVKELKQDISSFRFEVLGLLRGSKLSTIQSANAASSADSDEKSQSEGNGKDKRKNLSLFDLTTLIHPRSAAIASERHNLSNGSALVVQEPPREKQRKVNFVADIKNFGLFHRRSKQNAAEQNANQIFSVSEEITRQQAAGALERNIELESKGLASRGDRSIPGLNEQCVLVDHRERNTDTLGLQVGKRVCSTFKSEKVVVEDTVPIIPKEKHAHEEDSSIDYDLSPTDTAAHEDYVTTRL

[15] = biological target: T9, Tyrosine-protein phosphatase non-receptor type 22 (Homo sapiens, UniProt Q9Y2R2); format: functional
T9 sequence (Q9Y2R2 whole entry): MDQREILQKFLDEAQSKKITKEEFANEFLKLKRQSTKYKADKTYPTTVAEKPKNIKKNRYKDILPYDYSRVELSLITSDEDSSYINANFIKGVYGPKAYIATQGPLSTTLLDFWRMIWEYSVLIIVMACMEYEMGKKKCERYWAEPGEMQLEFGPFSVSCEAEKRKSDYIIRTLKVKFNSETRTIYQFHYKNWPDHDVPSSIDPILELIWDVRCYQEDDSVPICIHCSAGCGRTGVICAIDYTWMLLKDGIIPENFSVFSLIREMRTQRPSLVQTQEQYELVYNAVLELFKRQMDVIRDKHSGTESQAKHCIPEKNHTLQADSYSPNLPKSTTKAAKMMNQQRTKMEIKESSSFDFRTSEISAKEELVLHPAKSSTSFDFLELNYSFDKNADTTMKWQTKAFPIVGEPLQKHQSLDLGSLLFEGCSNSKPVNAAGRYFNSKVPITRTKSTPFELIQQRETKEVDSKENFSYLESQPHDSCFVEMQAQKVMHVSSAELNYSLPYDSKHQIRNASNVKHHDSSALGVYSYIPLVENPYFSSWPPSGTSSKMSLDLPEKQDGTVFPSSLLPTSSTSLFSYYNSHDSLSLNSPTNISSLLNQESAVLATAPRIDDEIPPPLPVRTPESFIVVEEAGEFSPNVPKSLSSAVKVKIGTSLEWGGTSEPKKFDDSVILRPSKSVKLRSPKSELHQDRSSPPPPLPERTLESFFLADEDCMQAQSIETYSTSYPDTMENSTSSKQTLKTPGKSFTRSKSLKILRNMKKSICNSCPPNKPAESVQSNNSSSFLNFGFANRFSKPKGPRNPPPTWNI

[16] = biological target: T9, Tyrosine-protein phosphatase non-receptor type 22; format: functional; remark: listed apart in the source
[17] = biological target: T10, Tyrosine-protein phosphatase non-receptor type 7 (Homo sapiens, UniProt P35236); format: functional
T10 sequence (P35236 whole entry): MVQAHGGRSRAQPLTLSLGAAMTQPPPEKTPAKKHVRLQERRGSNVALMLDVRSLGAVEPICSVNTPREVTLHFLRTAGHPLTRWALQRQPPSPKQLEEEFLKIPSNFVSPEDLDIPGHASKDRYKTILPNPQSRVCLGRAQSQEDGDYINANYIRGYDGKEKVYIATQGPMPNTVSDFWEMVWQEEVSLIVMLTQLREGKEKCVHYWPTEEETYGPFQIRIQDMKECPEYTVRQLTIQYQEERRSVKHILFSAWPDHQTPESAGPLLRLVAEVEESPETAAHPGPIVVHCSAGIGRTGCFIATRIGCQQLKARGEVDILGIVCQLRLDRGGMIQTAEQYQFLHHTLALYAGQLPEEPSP

[18] = biological target: T11, E3 ubiquitin-protein ligase XIAP (Homo sapiens, UniProt P98170); experiment: Counter Screen using XIAP-Bir3 for Chemical Antagonists of Bir1/2 domains of IAP-family anti-apoptotic proteins. [Related pubchem assays (depositor defined):AID1018, AID1449, AID1514, AID1638, AID1749, AID1750, AID488957, AID488963]
T11 sequence (P98170 whole entry): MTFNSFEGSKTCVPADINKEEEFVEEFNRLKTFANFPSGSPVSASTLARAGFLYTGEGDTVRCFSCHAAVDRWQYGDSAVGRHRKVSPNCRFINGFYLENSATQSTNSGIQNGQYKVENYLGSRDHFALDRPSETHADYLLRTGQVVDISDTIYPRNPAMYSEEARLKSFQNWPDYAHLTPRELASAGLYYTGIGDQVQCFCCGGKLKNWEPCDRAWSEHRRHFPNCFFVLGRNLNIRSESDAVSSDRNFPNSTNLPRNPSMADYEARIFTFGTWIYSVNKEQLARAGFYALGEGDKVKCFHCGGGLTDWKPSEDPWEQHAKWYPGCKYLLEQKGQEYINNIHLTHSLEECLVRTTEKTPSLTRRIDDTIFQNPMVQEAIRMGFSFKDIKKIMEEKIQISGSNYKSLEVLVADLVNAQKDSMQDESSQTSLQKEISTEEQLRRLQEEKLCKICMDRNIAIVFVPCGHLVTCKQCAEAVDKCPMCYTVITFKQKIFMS

[19] = biological target: T11, E3 ubiquitin-protein ligase XIAP; experiment: XIAP antagonists, biochemical, IAP family, fluorescence polarization (AID 1018); format: functional

T1 sequence (P41143 whole entry): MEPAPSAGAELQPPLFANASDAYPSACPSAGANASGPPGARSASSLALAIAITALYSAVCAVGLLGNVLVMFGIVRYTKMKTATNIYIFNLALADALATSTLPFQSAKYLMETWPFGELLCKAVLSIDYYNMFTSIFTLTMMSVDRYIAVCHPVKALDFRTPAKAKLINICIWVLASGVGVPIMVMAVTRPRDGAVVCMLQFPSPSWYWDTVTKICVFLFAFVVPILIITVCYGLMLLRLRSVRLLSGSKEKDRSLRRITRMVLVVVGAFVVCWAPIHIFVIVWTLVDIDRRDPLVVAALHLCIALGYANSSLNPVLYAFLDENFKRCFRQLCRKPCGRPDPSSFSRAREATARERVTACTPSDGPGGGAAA

SMILES: O=C(Nc1nccs1)c1sc2cc(Cl)ccc2c1Cl
- EC50 [1]: > 32 µM (inactive)
- EC50 [2]: 2.31 µM (active)
- EC50 [3]: 17.9 µM (active)
- EC50 (Beta-galactosidase [4]): > 31.5 µM (inactive)
- IC50 (Beta-galactosidase [5]): > 66.6 µM (inactive)
- IC50 [6]: 9.5 µM (active)
- EC50 (Mu-type opioid receptor): > 32 µM (inactive)
- AC50 (Cytochrome P450 2C19): 0.631 µM (inconclusive)
- AC50 (Cytochrome P450 2C9): 0.891 µM (inconclusive)
- IC50 [7]: > 32 µM (inactive)
- IC50 [8]: > 32 µM
- IC50 [9]: > 66.6 µM (inactive)

SMILES: O=C1c2cccc3cccc(c23)C(=O)N1CC1CCN(CC(O)COc2ccc3ccccc3c2)CC1 (stereo not given)
- EC50 [2]: 1.65 µM (active)
- EC50 [3]: > 60 µM (not active)
- IC50 [10]: 15 µM (active)
- EC50 [11]: 18.5 µM (active)
- IC50 (Bcl-2-related protein A1): > 20 µM (inactive)
- EC50 (Streptokinase A): 17.9 µM (inconclusive)
- EC50 (Melanocortin receptor 4): 6.31 µM (active)
- IC50 [12]: 7.69 µM (active)
- EC50 (Streptococcus): 18.6 µM (active)
- EC50 [13]: 6.34 µM (active)

SMILES: O=C(c1sc2ccccc2c1Cl)N(Cc1ccccc1)C1CCS(=O)(=O)C1 (stereo not given)
- AC50 (Cytochrome P450 2D6): 14.1 µM (inconclusive)
- EC50 [14]: 3.35 µM (active)

SMILES: O=C(CCN1C(=O)C2CC=C(Cl)CC2C1=O)NCc1ccco1 (stereo not given)
- IC50 [15]: > 79.4 µM (inactive)
- IC50 [16]: > 79.4 µM (inactive)
- IC50 [17]: > 79.4 µM (inactive)

SMILES: CCOc1ccccc1NC(=O)CN1CCC(C(=O)c2ccc(F)cc2)CC1
- IC50 [10]: 13.8 µM (active)
- IC50 (Bcl-2-related protein A1): > 20 µM (inactive)
- IC50 [12]: > 20 µM (inactive)

SMILES: CCOC(=O)c1ccc(NC(=O)NCCc2c[nH]cn2)cc1
- EC50 [14]: 0.133 µM (active)

SMILES: CC/N=C1\Cn2c(nc3scc(-c4ccccc4)c3c2=O)CN1CC
- IC50 [18]: > 100 µM (inactive)
- IC50 [19]: > 100 µM (not active)

SMILES: COc1ccc(OC)c(/C=N/NC(=O)c2ccc(Cn3cc([N+](=O)[O-])cn3)o2)c1
- IC50 [18]: > 100 µM (inactive)
- IC50 [19]: > 100 µM (not active)
